The structures appear in SMILES notation. Some results are limits rather than exact numbers.

For the assay, the target named is T1, human orexin-2 receptor (OX2R) (Homo sapiens, UniProt O43614).
T1 construct: expressed in transfected cells; host or cells: T-Rex CHO cells, induced with doxycycline
T1 sequence (O43614 1-444): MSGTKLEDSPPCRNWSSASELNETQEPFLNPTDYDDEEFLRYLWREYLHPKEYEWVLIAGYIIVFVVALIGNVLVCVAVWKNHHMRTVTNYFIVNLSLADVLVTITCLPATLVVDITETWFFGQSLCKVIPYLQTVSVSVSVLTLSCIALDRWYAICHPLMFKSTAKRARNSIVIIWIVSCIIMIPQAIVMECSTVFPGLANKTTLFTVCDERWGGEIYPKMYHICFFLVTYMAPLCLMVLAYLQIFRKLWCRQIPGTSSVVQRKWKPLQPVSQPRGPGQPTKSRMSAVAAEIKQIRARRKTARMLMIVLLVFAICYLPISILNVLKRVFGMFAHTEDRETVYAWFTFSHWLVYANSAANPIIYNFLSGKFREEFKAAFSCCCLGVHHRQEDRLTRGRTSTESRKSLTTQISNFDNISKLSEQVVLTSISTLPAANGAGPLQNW
Kind of assay: Human OX2R IP1 assay. In kind it is cell-based. The settings on record: T-Rex CHO cells stably overexpressing human OX2R, IP1 accumulation, 1 hr at 37 degrees C. As to the method:
T-Rex CHO cells stably overexpressing the human orexin-2 receptor (OX2R) were induced overnight with 1 μg/mL of doxycycline in a T225 flask. 24 hours post induction, cells were lifted with accutase and plated into a 384-well proxy plate at 30,000 cells/well. Cells were then treated with different test compounds in 1× stimulation buffer containing 10 mM Hepes, 1 mM CaCl2, 0.5 mM MgCl2, 4.2 mM KCl, 146 mM NaCl, 5.5 mM glucose, and 50 mM LiCl, pH 7.4, for 1 hr at 37 degrees C. Following incubation, the reaction was terminated by the addition of detection mix, which is composed of IP1-d2 and anti-IP1-cryptate diluted in lysis buffer as well as 1× stimulation buffer. The plates were allowed to incubate for 1 hour at room temperature and were then read in the EnVision® multimode plate reader, measuring inositol phosphate levels.
Cisbio IP1 is a cell-based functional assay quantifying the accumulation of inositol monophosphate (IP), a metabolite released as a result of orexin 2 receptor activation through the phospholipase C-Gq signaling pathway. This is a competitive immunoassay in which the IP1 produced by the cells upon receptor activation competes with the IP1 analog coupled to the d2 fluorophore (acceptor) for binding to an anti-IP1 monoclonal antibody labeled with Eu cryptate (donor). The measured HTRF-FRET based signal is inversely proportional to the IP1 concentration produced.
The EC50 values reported in Table 2 were obtained according to the human OX2R IP1 assay described above. Data are the mean EC50 values±S.E.M.
For the molecule `CCN1C(=O)OCC(=O)N2CCC[C@H](NS(C)(=O)=O)[C@@H]2CO[C@H]2CC[C@@H]1CC2` [Compound 1], the EC50 is 100 to 1000 nM.

`CN1C(=O)OCC(=O)N2CCC[C@H](NS(C)(=O)=O)[C@@H]2CO[C@H]2CC[C@@H]1CC2` [Compound 2] had an EC50 of 100 to 1000 nM. In turn, `CS(=O)(=O)N[C@H]1CCCN2C(=O)COC(=O)N(C3CC3)[C@H]3CC[C@H](CC3)OC[C@@H]12` [Compound 3] had an EC50 of 100 to 1000 nM. Take `CS(=O)(=O)N[C@H]1CCCN2C(=O)COC(=O)N(CC3CC3)[C@H]3CC[C@H](CC3)OC[C@@H]12` [Compound 10]: the EC50 was 100 to 1000 nM. Regarding `CS(=O)(=O)N[C@H]1CCCN2C(=O)COC(=O)N(CC(F)(F)F)[C@H]3CC[C@H](CC3)OC[C@@H]12` [Compound 11], the EC50 was > 1000 nM.

Source of the values: patent US12637476B2, “Substituted carbamate macrocyclic compounds and related methods of treatment” (Alkermes, Inc., priority 2021, dated 2026).
